Data published in US20260207585A1, “METHODS AND COMPOSITIONS FOR THE TREATMENT OF PARKINSON'S DISEASE, HUNTINGTON'S DISEASE, AMYOTROPHIC LATERAL SCLEROSIS, AND LEARNING DISORDERS” (Cedars-Sinai Medical Center, priority 2022, published 2026).
Where two headings read alike, the source gives them in different places.

Legend:
[1] = target: MLL2 Complex (Homo sapiens, UniProt O14686); assay: Methyltransferase inhibition panel: MLL2 Complex; assay type: biochemical
Description: (§1) The ability of ETP69 to inhibit methyltransferases was tested.

[2] = target: T1, PRMT7 (Homo sapiens, UniProt Q9NVM4); assay: Methyltransferase inhibition panel: PRMT7; assay type: biochemical
T1 sequence (Q9NVM4 1-692): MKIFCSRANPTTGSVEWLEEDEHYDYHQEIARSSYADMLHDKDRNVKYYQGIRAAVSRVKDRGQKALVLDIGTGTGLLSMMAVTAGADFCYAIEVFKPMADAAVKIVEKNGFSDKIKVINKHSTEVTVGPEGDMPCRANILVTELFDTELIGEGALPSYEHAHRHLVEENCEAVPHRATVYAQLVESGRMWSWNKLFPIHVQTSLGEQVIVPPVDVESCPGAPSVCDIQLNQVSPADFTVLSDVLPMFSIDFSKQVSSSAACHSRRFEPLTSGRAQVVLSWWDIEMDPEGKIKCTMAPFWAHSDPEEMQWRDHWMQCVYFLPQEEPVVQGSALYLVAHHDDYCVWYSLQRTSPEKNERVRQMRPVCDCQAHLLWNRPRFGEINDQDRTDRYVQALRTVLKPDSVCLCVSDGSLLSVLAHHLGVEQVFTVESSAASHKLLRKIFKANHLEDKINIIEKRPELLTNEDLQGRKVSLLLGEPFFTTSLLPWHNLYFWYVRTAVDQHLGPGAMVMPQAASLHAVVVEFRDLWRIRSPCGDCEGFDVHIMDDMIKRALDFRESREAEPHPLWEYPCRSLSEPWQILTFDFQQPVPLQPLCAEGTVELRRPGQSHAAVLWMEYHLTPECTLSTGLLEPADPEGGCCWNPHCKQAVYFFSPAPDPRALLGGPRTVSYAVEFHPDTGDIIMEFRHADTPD
Description: as §1

[3] = system: H3K9me3; assay: H3K9me3 staining in cingulate/cerebral cortex and hippocampus; assay type: in vivo, mice; set-up: reduction of H3K9me3 IR area / reduction of hippocampal H3K9me3 levels: concentration or dose not given beside the values; details: for reduction of hippocampal H3K9me3 levels: 15 days after injection; for decrease in neuronal H3K9me3 irradiance: cingulate cortex; for reduction of H3K9me3 IR area: cortex
Description: The experimental protocol is depicted in FIG. 2A. Mice were treated with ETP69 or DMSO. After 2 days, they were tested on the color X-maze. At day 12, they were tested on the Barnes maze. On day 14, they were tested for fear conditioning. Brain tissue was isolated as depicted for analysis of H3K9me3 staining on days 4 and 15, as depicted in FIG. 2B-2D. Levels of H3K9me3 correlated with the percent of alterations at day 4 as depicted in FIG. 2E. At day 15, H3K9me3 was decreased in mice treated with ETP69 as compared to mice treated with DMSO. Levels of H3K9me3 was decreased in both the cingulate cortex and the hippocampus at 4 and 15 days (FIGS. 2J-2M).
(§2) The effects of single and repeated ETP69 injections in mice were tested. The experimental timeline is depicted in FIG. 5. Three parallel injection conditions were tested: a single ETP69 condition, a boosted ETP69 injection, and repeated ETP69 injections. The single injection mice received one injection of ETP69 or DMSO at Day 0. The mice that received a boosted injection received one injection of ETP69 or DMSO at day 0 and one injection at day 9. The mice that received repeated injections received 11 injections of ETP69 or DMSO at day 0 or day 9. Both wildtype and AD model (APP/PS1-transgenic) mice were tested.
AD+ brains were stained for neuronal H3K9me3 and DAPI. Representative images of the cingulate cortex and hippocampus of DMSO and ETP69 treated mice are depicted in FIGS. 8A and 8C, respectively. Neuronal H3K9me3 irradiance in the cingulate cortex is quantified in FIG. 8B. […] H3K9me3 staining in the DG correlated with performance in the Barnes Test, while K3K9me3 staining in the hippocampus was correlated with performance in the fear conditioning test.
The effects of ETP69 on cerebral H3K9me3 levels was tested in old mice, in both a neurodegenerative model and WT siblings. The levels of brain H3K9me3 at days 4 (short-term) and 15 (long-term) following i.p. ETP69 injection (S regimen cohorts) were measured. […] These findings indicate that a single dose of ETP69 is sufficient to sustainably reduce H3K9me3 in the brains of old WT and neurodegenerative mice. Consistent with the observations in 18-month-old mice, ETP69 mitigated neuroinflammation, including by reduced ionized calcium-binding adaptor molecule 1 (Iba-1)^+ microgliosis in neurodegenerative mice (40%, p=0.0021; FIG. 16D).

[4] = system: AD+ mice; assay: Open Field Barnes Maze test; assay type: in vivo; details: AD+ mice vs AD+ mice treated with DMSO
Description: as §2
The results of the Open Field Barnes Maze test indicate hippocampal-based spatial memory. FIG. 7A depicts a schematic of the Barnes Maze Test. […] The results of the fear conditioning test indicate spatial memory.

[5] = NT1721 20 μM, substrate GST-GAR 5 μM

Sequence of MLL2 Complex (O14686 5319-5537): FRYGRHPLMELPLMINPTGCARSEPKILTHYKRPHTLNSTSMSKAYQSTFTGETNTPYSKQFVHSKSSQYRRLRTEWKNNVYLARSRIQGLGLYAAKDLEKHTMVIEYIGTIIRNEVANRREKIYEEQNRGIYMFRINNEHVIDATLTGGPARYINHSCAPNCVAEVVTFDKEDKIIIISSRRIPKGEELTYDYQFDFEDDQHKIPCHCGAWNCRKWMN
Sequence of MLL2 Complex (Q9UBL3 whole entry, further chain): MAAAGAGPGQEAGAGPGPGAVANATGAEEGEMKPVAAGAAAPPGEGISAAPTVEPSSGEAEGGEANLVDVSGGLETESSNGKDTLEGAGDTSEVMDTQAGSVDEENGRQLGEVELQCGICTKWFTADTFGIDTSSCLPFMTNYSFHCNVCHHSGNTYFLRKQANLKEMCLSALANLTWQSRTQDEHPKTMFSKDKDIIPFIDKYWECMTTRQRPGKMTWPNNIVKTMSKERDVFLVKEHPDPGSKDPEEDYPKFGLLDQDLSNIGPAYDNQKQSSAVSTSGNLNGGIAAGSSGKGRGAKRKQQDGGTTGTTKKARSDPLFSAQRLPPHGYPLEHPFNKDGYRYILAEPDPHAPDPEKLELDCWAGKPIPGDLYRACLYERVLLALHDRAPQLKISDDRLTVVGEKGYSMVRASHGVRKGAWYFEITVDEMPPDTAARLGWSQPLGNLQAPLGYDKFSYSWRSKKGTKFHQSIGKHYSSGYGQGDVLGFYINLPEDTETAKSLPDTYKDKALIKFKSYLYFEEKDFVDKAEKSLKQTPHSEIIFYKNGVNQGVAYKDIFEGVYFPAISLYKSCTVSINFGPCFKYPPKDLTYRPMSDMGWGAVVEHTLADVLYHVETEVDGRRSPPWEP
Sequence of MLL2 Complex (Q9C005 whole entry, further chain): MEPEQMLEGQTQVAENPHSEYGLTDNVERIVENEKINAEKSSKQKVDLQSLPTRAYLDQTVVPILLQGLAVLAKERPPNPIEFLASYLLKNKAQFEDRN
Sequence of MLL2 Complex (Q15291 whole entry, further chain): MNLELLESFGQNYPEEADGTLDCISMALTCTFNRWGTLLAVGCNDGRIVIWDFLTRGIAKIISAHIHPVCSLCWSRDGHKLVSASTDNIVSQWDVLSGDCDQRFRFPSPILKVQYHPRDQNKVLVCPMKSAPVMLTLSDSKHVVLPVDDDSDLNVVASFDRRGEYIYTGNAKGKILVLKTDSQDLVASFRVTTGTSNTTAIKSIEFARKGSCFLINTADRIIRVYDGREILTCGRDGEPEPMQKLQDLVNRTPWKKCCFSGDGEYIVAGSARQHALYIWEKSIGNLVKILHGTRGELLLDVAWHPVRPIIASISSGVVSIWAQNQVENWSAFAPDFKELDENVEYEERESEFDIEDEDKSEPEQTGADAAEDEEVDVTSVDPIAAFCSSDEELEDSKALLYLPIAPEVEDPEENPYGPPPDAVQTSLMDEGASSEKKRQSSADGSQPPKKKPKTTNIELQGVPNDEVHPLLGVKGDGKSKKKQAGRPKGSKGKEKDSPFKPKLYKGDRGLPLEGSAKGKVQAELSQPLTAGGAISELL

SMILES: CN1C(=O)[C@@]23C[C@](C)(C#N)[C@H](c4ccc5c(c4)OCO5)N2C(=O)[C@]1(C)SS3 (racemic) [ETP69, Rac-(3S,6S,7S,8aS)-6-(benzo[d][1,3]dioxol-5-yl)-2,3,7-trimethyl-1,4-dioxohexahydro-6H-3,8a-epidithiopyrrolo[1,2-a]pyrazine-7-carbonitrile]
- remaining activity at 20 µM ([1]; read-out: Enzyme % Activity (relative to DMSO controls) Data 1): 19%
- remaining activity at 20 µM ([1]; read-out: Enzyme % Activity (relative to DMSO controls) Data 2): 20.4%
- inhibition relative to DMSO controls ([1]; summary of Table 1): at least 7500
- Enzyme % Activity (relative to DMSO controls) Data 1 [2, 5]: 66.70%
- Enzyme % Activity (relative to DMSO controls) Data 2 [2, 5]: 66.73%
- inhibition relative to DMSO controls ([2]; summary of Table 1): at least 7500
- reduction of hippocampal H3K9me3 levels ([3]; CA, WT mice): 36%
- reduction of hippocampal H3K9me3 levels ([3]; CA, neurodegenerative mice): 54%
- reduction of hippocampal H3K9me3 levels ([3]; DG, neurodegenerative mice): 42%
- Levels of H3K9me3 ([3]; cingulate cortex and hippocampus, 4 and 15 days): decreased
- decrease in neuronal H3K9me3 irradiance ([3]; AD+ mice, day 4): 40%
- decrease in neuronal H3K9me3 irradiance ([3]; AD+ mice, day 14): 40%
- decrease in neuronal H3K9me3 irradiance ([3]; wildtype mice, day 4): 27%
- reduction of H3K9me3 IR area ([3]; WT old mice, 4 days after single i.p. injection): 27%
- reduction of H3K9me3 IR area ([3]; neurodegenerative mice, after 15 days): 40%
- reduction of H3K9me3 IR area ([3]; neurodegenerative old mice, 4 days after single i.p. injection): 40%
- H3K9me3 ([3]; day 15, vs mice treated with DMSO): decreased
- decrease in H3K9me3 irradiance ([3]; hippocampus, AD+ mice, vs AD+ mice administered DMSO): 47%
- H3K9 expression (H3K9me3 repression mark), cell-specific ([3]; neurons, astrocytes, and microglia macrophages, AD+ mice): reduced
- memory retention [4]: improvement
